Measurements taken from ChEMBL document CHEMBL1201862, “PubChem BioAssay data set” (2004).
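Results reflect a 48-hour exposure of cells in 96-well plates to compound at five concentrations. GI50 is the concentration that inhibits growth by half.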 Active and inactive are the calls of the source. No stated cut-off is given here; in the data, active = GI50 up to about 1.1 µM and inactive = higher.

How the values were obtained:
Experiment in all cases: growth of human tumour cells (NCI), 48 h
OVCAR-4 = system: OVCAR-4
TK-10 = system: TK-10
SK-MEL-2 = system: SK-MEL-2
BT-549 = system: BT-549
NCI/ADR-RES = system: NCI/ADR-RES
SNB-19 = system: SNB-19
HL-60 = system: HL-60
SF-295 = system: SF-295
OVCAR-3 = system: OVCAR-3
SF-268 = system: SF-268
MDA-N = system: MDA-N
MOLT-4 = system: MOLT-4
K562 = system: K562
HT-29 = system: HT-29
OVCAR-8 = system: OVCAR-8
LOX IMVI = system: LOX IMVI
HOP-92 = system: HOP-92
SK-MEL-28 = system: SK-MEL-28
MCF7 = system: MCF7
MDA-MB-231 = system: MDA-MB-231
A549 = system: A549
SW-620 = system: SW-620
NCI-H522 = system: NCI-H522
HCC 2998 = system: HCC 2998
NCI-H226 = system: NCI-H226
UO-31 = system: UO-31
SK-MEL-5 = system: SK-MEL-5
KM12 = system: KM12
DU-145 = system: DU-145
U-251 = system: U-251
786-0 = system: 786-0
UACC-257 = system: UACC-257
Malme-3M = system: Malme-3M
SN12C = system: SN12C
SF-539 = system: SF-539
RXF 393 = system: RXF 393
SK-OV-3 = system: SK-OV-3
HCT-116 = system: HCT-116
CAKI-1 = system: CAKI-1
UACC-62 = system: UACC-62
M14 = system: M14
SNB-75 = system: SNB-75
ACHN = system: ACHN
RPMI-8226 = system: RPMI-8226
OVCAR-5 = system: OVCAR-5
PC-3 = system: PC-3
HCT-15 = system: HCT-15
NCI-H23 = system: NCI-H23
SR = system: SR
IGROV-1 = system: IGROV-1
HOP-62 = system: HOP-62
T47D = system: T47D
NCI-H460 = system: NCI-H460
COLO 205 = system: COLO 205
Hs-578T = system: Hs-578T
MDA-MB-435 = system: MDA-MB-435
CCRF-CEM = system: CCRF-CEM
EKVX = system: EKVX

Measured: GI50

CCOc1nc2c(N3CCCC3)nc(N3CCNCC3)nc2nc1NCc1ccccc1
active: OVCAR-3 0.887 µM | MDA-N 1.11 µM | MOLT-4 1.09 µM | HT-29 0.83 µM | NCI-H522 0.82 µM | DU-145 0.944 µM | RXF 393 1.03 µM | HCT-116 0.923 µM | SNB-75 0.975 µM | HOP-62 1.05 µM | COLO 205 0.574 µM
inactive: OVCAR-4 2.42 µM | TK-10 1.9 µM | SK-MEL-2 1.66 µM | BT-549 1.61 µM | NCI/ADR-RES 2.77 µM | SNB-19 1.51 µM | HL-60 1.4 µM | SF-295 1.76 µM | SF-268 1.56 µM | K562 1.2 µM | OVCAR-8 1.73 µM | LOX IMVI 1.36 µM | HOP-92 1.13 µM | SK-MEL-28 1.79 µM | MCF7 1.53 µM | MDA-MB-231 1.45 µM | A549 1.74 µM | SW-620 1.73 µM | HCC 2998 1.34 µM | NCI-H226 1.65 µM | UO-31 1.32 µM | SK-MEL-5 1.41 µM | KM12 1.34 µM | U-251 1.17 µM | 786-0 1.39 µM | UACC-257 1.74 µM | Malme-3M 1.89 µM | SN12C 1.5 µM | SF-539 1.52 µM | SK-OV-3 1.57 µM | CAKI-1 1.85 µM | UACC-62 1.83 µM | M14 1.61 µM | ACHN 1.58 µM | RPMI-8226 1.39 µM | OVCAR-5 4.14 µM | PC-3 1.46 µM | NCI-H23 1.51 µM | SR 1.31 µM | IGROV-1 1.19 µM | T47D 1.46 µM | NCI-H460 1.41 µM | Hs-578T 1.72 µM | MDA-MB-435 1.34 µM | CCRF-CEM 1.26 µM | EKVX 2.1 µM
1.63 µM: HCT-15

CCSc1c(C)c2c(n(Cc3ccc(OC)cc3)c1=O)Cc1ccccc1C2
4.52 µM: HCT-15
inactive: OVCAR-4 21.4 µM | TK-10 27.2 µM | SK-MEL-2 8.3 µM | BT-549 22.9 µM | NCI/ADR-RES 5.08 µM | SNB-19 18.2 µM | HL-60 6.17 µM | SF-295 32.1 µM | OVCAR-3 20.1 µM | SF-268 11.8 µM | MDA-N 10.4 µM | MOLT-4 2.53 µM | K562 16.5 µM | HT-29 28.2 µM | OVCAR-8 14.9 µM | LOX IMVI 11.9 µM | SK-MEL-28 92.7 µM | MCF7 24.7 µM | MDA-MB-231 20.7 µM | A549 21.9 µM | SW-620 15.5 µM | NCI-H522 11.9 µM | HCC 2998 13.6 µM | NCI-H226 36.5 µM | UO-31 12.4 µM | SK-MEL-5 15.4 µM | KM12 25.1 µM | DU-145 24.7 µM | U-251 15 µM | 786-0 11 µM | UACC-257 13.3 µM | Malme-3M 10.8 µM | SN12C 12.8 µM | SF-539 19.2 µM | RXF 393 32.1 µM | SK-OV-3 39.5 µM | HCT-116 11.2 µM | CAKI-1 44 µM | UACC-62 22.9 µM | M14 10.9 µM | SNB-75 21.9 µM | ACHN 10.3 µM | OVCAR-5 46.9 µM | PC-3 15.3 µM | NCI-H23 20 µM | SR 3.61 µM | IGROV-1 19 µM | HOP-62 23.1 µM | T47D 30.5 µM | NCI-H460 6.11 µM | COLO 205 35.6 µM | Hs-578T 24.5 µM | MDA-MB-435 25.1 µM | CCRF-CEM 2.02 µM | EKVX 21.4 µM

O=C1c2ccccc2C2C1C(c1ccccc1)C1(Cc3ccccc3C1=O)C2c1ccccc1 (stereo not given)
> 100 µM: HCT-15
inactive: OVCAR-4 > 100 µM | TK-10 > 100 µM | SK-MEL-2 > 100 µM | BT-549 > 100 µM | NCI/ADR-RES > 100 µM | SNB-19 > 100 µM | HL-60 3.67 µM | SF-295 > 29.6 µM | OVCAR-3 > 100 µM | SF-268 > 100 µM | MDA-N 4.28 µM | MOLT-4 3.58 µM | K562 5.53 µM | HT-29 14.8 µM | OVCAR-8 > 100 µM | LOX IMVI 21.6 µM | HOP-92 > 100 µM | SK-MEL-28 > 100 µM | MCF7 > 31.7 µM | MDA-MB-231 4.72 µM | A549 > 100 µM | SW-620 > 100 µM | NCI-H522 20.5 µM | HCC 2998 > 46.8 µM | NCI-H226 > 100 µM | UO-31 > 29.8 µM | SK-MEL-5 > 55.8 µM | KM12 > 100 µM | DU-145 > 100 µM | U-251 > 100 µM | 786-0 > 100 µM | UACC-257 > 100 µM | Malme-3M > 100 µM | SN12C > 100 µM | SF-539 > 100 µM | RXF 393 > 100 µM | SK-OV-3 > 100 µM | HCT-116 2.2 µM | UACC-62 10.1 µM | M14 > 100 µM | SNB-75 30.4 µM | ACHN > 100 µM | OVCAR-5 > 100 µM | PC-3 12.5 µM | NCI-H23 > 100 µM | SR 7.57 µM | IGROV-1 11.7 µM | HOP-62 > 100 µM | T47D 11.4 µM | NCI-H460 > 67 µM | COLO 205 > 100 µM | Hs-578T > 100 µM | MDA-MB-435 > 73.6 µM | CCRF-CEM 4.85 µM | EKVX > 100 µM
